Holding throughout (type): in vivo
The test system of test [1] is ryegrass, Italian (Italian ryegrass, Lolium multiflorum). Put plainly: Test A preemergence. As to conditions: Lolium multiflorum, pre-emergence, 240 h; for pest or weed control at 125 g/ha: 125 g ai/ha; for pest or weed control at 500 g/ha: 500 g ai/ha, visual injury rating about 10 d after treatment, 0 to 100 scale (0 no effect, 100 complete control). In short, it runs like this: (§1)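 Visual injury scores from 0, no effect, to 100, complete control, were assigned versus untreated controls roughly 10 d after treatment in the greenhouse. Test chemicals, formulated with surfactant in a non-phytotoxic solvent, were applied to planted seeds as a preemergence soil spray or postemergence to one- to two-leaf plants 2 to 10 cm tall, in loam–sand soil.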

The test system of test [2] is Galium (catchweed bedstraw, Galium aparine). Put plainly: Test A postemergence. The following applies: Galium, post-emergence, 240 h, postemergence; for pest or weed control at 125 g/ha: 125 g ai/ha, visual injury on 0 to 100 scale (0 no effect, 100 complete control); for pest or weed control at 500 g/ha: 500 g ai/ha. In short, it runs like this: as §1
The subject of another test is Kochia (Kochia scoparia). Put plainly: Test A postemergence. The following applies: Bassia scoparia, post-emergence, 240 h, postemergence; for pest or weed control at 125 g/ha: 125 g ai/ha, visual injury on 0 to 100 scale (0 no effect, 100 complete control); for pest or weed control at 500 g/ha: 500 g ai/ha. In short, it runs like this: as §1
Test [3] deals with barnyardgrass (Echinochloa crus-galli). Put plainly: Test A postemergence. As to conditions: Echinochloa crus-galli, post-emergence, 240 h, postemergence; for pest or weed control at 125 g/ha: 125 g ai/ha, visual injury on 0 to 100 scale (0 no effect, 100 complete control); for pest or weed control at 500 g/ha: 500 g ai/ha. In short, it runs like this:
as §1

For test [4], the system named is blackgrass (Alopecurus myosuroides). Put plainly: Test A postemergence. The following applies: Alopecurus myosuroides, post-emergence, 240 h, postemergence; for pest or weed control at 125 g/ha: 125 g ai/ha, visual injury on 0 to 100 scale (0 no effect, 100 complete control); for pest or weed control at 500 g/ha: 500 g ai/ha. In short, it runs like this: as §1
The test system of a further test is corn (Zea mays). Put plainly: Test A postemergence. As to conditions: Zea mays, post-emergence, 240 h, postemergence; for plant injury at 125 g/ha: 125 g ai/ha, visual injury on 0 to 100 scale (0 no effect, 100 complete control); for plant injury at 125 g/ha / Corn plant response rating (crop injury, 0 = no effect, 100 = complete kill) at 500 g/ha: approx. 10 d; for Corn plant response rating (crop injury, 0 = no effect, 100 = complete kill) at 500 g/ha: visual injury, 0 to 100 scale (0 no effect, 100 complete control). The gist of the method:
as §1

Test [5] relates to giant foxtail (Setaria faberii). Put plainly: Test A postemergence. The following applies: Setaria faberi, post-emergence, 240 h, postemergence; for pest or weed control at 125 g/ha: 125 g ai/ha, visual injury on 0 to 100 scale (0 no effect, 100 complete control); for pest or weed control at 500 g/ha: 500 g ai/ha. The gist of the method: as §1
The test system of test [6] is pigweed (Amaranthus retroflexus). Put plainly: Test A postemergence. As to conditions: Amaranthus retroflexus, post-emergence, 240 h, postemergence, read-out: Pigweed plant response rating; for pest or weed control at 125 g/ha: 125 g ai/ha, visual injury on 0 to 100 scale (0 no effect, 100 complete control), approx. 10 d. The gist of the method:
as §1

Test [7] deals with ragweed (common ragweed, Ambrosia elatior). Put plainly: Test A postemergence. The following applies: Ambrosia artemisiifolia, post-emergence, 240 h, postemergence, read-out: Ragweed plant response rating; for pest or weed control at 125 g/ha: 125 g ai/ha, visual injury on 0 to 100 scale (0 no effect, 100 complete control), approx. 10 d. In short, it runs like this:
as §1

For test [8], the system named is ryegrass, Italian (Italian ryegrass, Lolium multiflorum). Put plainly: Test A postemergence. The following applies: Lolium multiflorum, post-emergence, 240 h, postemergence, read-out: Ryegrass, Italian plant response rating; for pest or weed control at 125 g/ha: 125 g ai/ha, visual injury on 0 to 100 scale (0 no effect, 100 complete control), approx. 10 d. The gist of the method: as §1

The subject of test [9] is wheat (Triticum aestivum). Put plainly: Test A postemergence. As to conditions: Triticum aestivum, post-emergence, 240 h, postemergence, read-out: Wheat plant response rating; for plant injury at 125 g/ha: 125 g ai/ha, visual injury on 0 to 100 scale (0 no effect, 100 complete control), approx. 10 d. The gist of the method:
as §1

For test [10], the system named is barnyardgrass (Echinochloa crus-galli). Put plainly: Test B flooded paddy test. The following applies: Echinochloa crus-galli, 250 g ai/ha, Flood; 0 to 100 scale where 0 is no effect and 100 is complete control; read-out: Barnyardgrass plant response rating. In short, it runs like this: (§2)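 Visual ratings (0 none to 100 complete control) are relative to untreated plants, taken 13–15 d after treatment in a greenhouse. Test material went straight into floodwater standing 3 cm above the soil, kept constant, on plants at the 2-leaf stage.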

Test [11] deals with ducksalad (Heteranthera limosa). Put plainly: Test B flooded paddy test. The following applies: Heteranthera limosa, 250 g ai/ha, Flood; 0 to 100 scale where 0 is no effect and 100 is complete control; read-out: Ducksalad plant response rating. The gist of the method: as §2
The test system of a further test is rice (Oryra sativa). Put plainly: Test B flooded paddy test. As to conditions: Oryza sativa, 250 g ai/ha, Flood; 0 to 100 scale where 0 is no effect and 100 is complete control; read-out: Rice plant response rating. The gist of the method:
as §2

Test [12] has as its system sedge, umbrella (small-flower umbrella sedge, Cyperus difformis). Put plainly: Test B flooded paddy test. The following applies: Cyperus difformis, 250 g ai/ha, Flood; 0 to 100 scale where 0 is no effect and 100 is complete control; read-out: Sedge, Umbrella plant response rating. The gist of the method:
as §2

The mark [13] stands for this setting: Preemergence, visual injury rating after approximately 10 d, read-out: Ryegrass, Italian plant response rating (0 to 100 scale, 0 is no effect, 100 is complete control).
Where [14] appears, read: preemergence, read-out: Ryegrass, Italian plant response rating.
[15] abbreviates: approx. 10 d, read-out: Galium plant response rating.
[16] abbreviates: visual injury, 0 to 100 scale (0 no effect, 100 complete control), approx. 10 d, read-out: Plant response rating, Galium.
Where [17] appears, read: approx. 10 d, read-out: Kochia plant response rating.
The mark [18] stands for this setting: visual injury, 0 to 100 scale (0 no effect, 100 complete control), approx. 10 d, read-out: Plant response rating, Kochia.
[19] abbreviates: approx. 10 d, read-out: Barnyardgrass plant response rating.
Setting [20] is: visual injury, 0 to 100 scale (0 no effect, 100 complete control), approx. 10 d, read-out: Plant response rating, Barnyardgrass.
The mark [21] stands for this setting: approx. 10 d, read-out: Blackgrass plant response rating.
The mark [22] stands for this setting: visual injury, 0 to 100 scale (0 no effect, 100 complete control), approx. 10 d, read-out: Plant response rating, Blackgrass.
Where [23] appears, read: read-out: Corn plant response rating.
Setting [24] is: approx. 10 d, read-out: Foxtail, Giant plant response rating.
The mark [25] stands for this setting: visual injury, 0 to 100 scale (0 no effect, 100 complete control), approx. 10 d, read-out: Plant response rating, Foxtail, Giant.
[26] abbreviates: 500 g ai/ha, 0 to 100 scale, 0 is no effect, 100 is complete control.

Like-named read-outs stand apart in the source and are kept apart here.

Consider `O=C(Nc1cccc(F)c1F)[C@H]1C(=S)NC[C@@H]1c1ccc(C(F)(F)F)cc1` (racemic) [Compound 1048], for which the pest or weed control at 125 g/ha came to 20% in test [1] (setting [13]); 0% in [2] (setting [15]); 30% with Kochia (Kochia scoparia) (setting [17]); 50% in test [3] (setting [19]); 20% in test [4] (setting [21]); 60% in [5] (setting [24]). The pest or weed control at 125 g/ha came out at 30% in test [6], 0% in [7] and 30% in [8]. Moreover, the pest or weed control at 500 g/ha in [1] (setting [14]) stood at 40%; in test [2] (setting [16]), 60%; in the test on Kochia (Kochia scoparia) (setting [18]), 60%; in [3] (setting [20]), 80%; in test [4] (setting [22]), 30%; in test [5] (setting [25]), 80%. Further, the plant injury at 125 g/ha (in the test on corn (Zea mays) (setting [23]); in test [9]) was 20% throughout. Further, the Corn plant response rating (crop injury, 0 = no effect, 100 = complete kill) at 500 g/ha in the test with corn (Zea mays) (500 g ai/ha) stood at 40%. For the same molecule, the pest or weed control at 250 g/ha in test [10] amounted to 30%; in test [11] it was 50%; in the test with rice (Oryra sativa), 0%; in [12], 0%.
For `O=C(Nc1ccccc1C(F)(F)F)[C@H]1C(=S)NC[C@@H]1c1ccc(C(F)(F)F)cc1` (racemic) [Compound 1049], the pest or weed control at 125 g/ha in test [1] (setting [13]) turned out to be 0%; in test [2] (setting [15]), 0%; in the test with Kochia (Kochia scoparia) (setting [17]), 0%; in [3] (setting [19]) it was 30%; in test [4] (setting [21]) it was 0%; in [5] (setting [24]), 70%. Further, the pest or weed control at 125 g/ha in test [6] came out at 10%; in test [7] it was 0%; in test [8] it was 0%. Besides, the pest or weed control at 500 g/ha is 30% in test [1] (setting [14]); 40% in test [2] (setting [16]); 30% in the test on Kochia (Kochia scoparia) (setting [18]); 50% in test [3] (setting [20]); 0% in [4] (setting [22]); 80% in test [5] (setting [25]). The plant injury at 125 g/ha (with corn (Zea mays) (setting [23]); in [9]) was 0% each time. The molecule also came in with a Corn plant response rating (crop injury, 0 = no effect, 100 = complete kill) at 500 g/ha with corn (Zea mays) (500 g ai/ha) of 0%. The pest or weed control at 250 g/ha in test [10] worked out at 20%; in test [11] it was 70%; with rice (Oryra sativa) it was 0%; in test [12], 0%.
For the molecule `Cc1ccc([C@H]2CN(C)C(=O)[C@]2(O)C(=O)Nc2cccc(F)c2F)cc1` (racemic) [Compound 1059], the pest or weed control at 125 g/ha worked out at 0% in test [1] (preemergence, 0 to 100 scale where 0 is no effect and 100 is complete control, approx. 10 d, read-out: Ryegrass, Italian plant response rating); 0% in test [2] (setting [15]); 0% in the test with Kochia (Kochia scoparia) (setting [17]); 40% in test [3] (setting [19]); 0% in [4] (setting [21]); 0% in [5] (setting [24]). Moreover, the pest or weed control at 125 g/ha in [6], in test [7] and in [8] was 0% throughout. Moreover, the pest or weed control at 500 g/ha was determined as 0% in test [1] (setting [14]); 0% in test [2] (0 to 100 scale, 0 is no effect, 100 is complete control, read-out: Galium plant response rating); 0% with Kochia (Kochia scoparia) (0 to 100 scale, 0 is no effect, 100 is complete control, read-out: Kochia plant response rating); 90% in test [3] (0 to 100 scale, 0 is no effect, 100 is complete control, read-out: Barnyardgrass plant response rating); 0% in test [4] (0 to 100 scale, 0 is no effect, 100 is complete control, read-out: Blackgrass plant response rating); 40% in test [5] (0 to 100 scale, 0 is no effect, 100 is complete control, read-out: Foxtail, Giant plant response rating). The pest or weed control at 500 g/ha in test [6] (setting [26]) is 0%; in [7] (setting [26]), 0%; in test [8] (setting [26]), 20%. In addition, the plant injury at 125 g/ha (in the test with corn (Zea mays) (setting [23]); in [9]) was 0% in each case. Moreover, the plant injury at 500 g/ha came out at 20% in the test with corn (Zea mays) (500 g ai/ha, 0 to 100 scale, 0 is no effect, 100 is complete control, read-out: Corn plant response rating) and 0% in [9] (setting [26]). Further, the pest or weed control at 250 g/ha (in [10]; in test [11]; in the test with rice (Oryra sativa); in test [12]) was 0% throughout.
